Legend:
[1] = previous study; cited from earlier work
[2] = tested on: 10 hematological cell-lines; assay: In vitro cytotoxicity screening on the panel of hematological cell-lines (WST-1); conditions: for effect on proliferation rate across the examined cell-lines: 10 hematological cell-lines, WST-1; for cytotoxic effect compared to the parental non-conjugated drug: chimera vs its parent drug
Protocol: The above cells were cultured in RPMI medium (Gibco, Thermo Fisher Scientific Inc., USA). […] All media were supplemented with 10% heat-inactivated Fetal Bovine Serum (FBS, Biological industries, Israel), 2 mM glutamine (Biological industries, Israel) and 1% penicillin and streptomycin (Biological industries, Israel). Cells were cultured at 37° C. in a humidified incubator with 5% CO2.
Growth inhibition in hematological malignancies cell-lines was measured by tetrazolium WST-1 assay (Roche, Basel, Switzerland). Cells (1*10^4) were treated with various concentrations of the specific chimera or parental drug. After 48 h of incubation, 10 μl of WST-1 reagent was added to the plate and incubated for 1 h at 37° C., at which point the absorbance (450 nm) was measured in an ELISA plate reader (Synergy HTX multi-mode reader, Winooski, Vermont, USA).
MUTZ5 and MHH-CALL4; B-cell Acute lymphocytic leukemia (B-cell ALL) model. DND41; T-ALL model. KG-1a and OCI-AML-3; Acute myeloid leukemia (AML) model and HEL; erythroleukemia model.

[3] = tested on: MHH-CALL4; assay: WST-1 proliferation assay, MHH-CALL4; type: cell-based, human; conditions: WST-1, 48 hours of treatment
Protocol: (§1) Albert Pinhasov (Ariel University, Ariel, Israel). […] Granta cells were kindly provided by Prof.
(§2) Table 3 [resents the calculated IC50 values (μM) for each chimera in different hematological malignancies cell-lines. The proliferation rate was measured by WST-1 assay after 48 hours of treatment. The result shown for each concentration point represents the […]

[4] = tested on: OCI-AML3; assay: WST-1 proliferation assay, OCI-AML3; type: cell-based; conditions: WST-1, 48 hours of treatment
Protocol: as §1, §2

[5] = tested on: MINO; assay: WST-1 proliferation assay, MINO; type: cell-based, human; conditions: WST-1, 48 hours of treatment
Protocol: as §1, §2

[6] = tested on: KG-1a; assay: WST-1 proliferation assay, KG-1a; type: cell-based; conditions: WST-1, 48 hours of treatment
Protocol: as §1, §2

[7] = tested on: HEL; assay: WST-1 proliferation assay, HEL; type: cell-based, human; conditions: WST-1, 48 hours of treatment
Protocol: as §1, §2

[8] = tested on: DND41; assay: WST-1 proliferation assay, DND41; type: cell-based, human; conditions: WST-1, 48 hours of treatment
Protocol: as §1, §2

[9] = tested on: MUTZ5; assay: WST-1 proliferation assay, MUTZ5; type: cell-based, human; conditions: WST-1, 48 hours of treatment
Protocol: as §1, §2

[10] = tested on: JEKO-1; assay: WST-1 proliferation assay, JEKO-1; type: cell-based, human; conditions: WST-1, 48 hours of treatment
Protocol: as §1, §2

[11] = tested on: GRANTA; assay: WST-1 proliferation assay, GRANTA; type: cell-based; conditions: WST-1, 48 hours of treatment
Protocol: as §1, §2

[12] = tested on: Rec-1; assay: WST-1 proliferation assay, Rec-1; type: cell-based, human; conditions: WST-1, 48 hours of treatment
Protocol: as §1, §2

[13] = tested on: aggressive papillary thyroid cancer cells; assay: Proliferation of aggressive papillary thyroid cancer cells; type: cell-based; conditions: 10 nM and 100 nM, with respect to DMSO control
Protocol: Chimera 9 (also referred to herein as Doxorubizen) was evaluated in two different concentrations (10 nM and 100 nM) on aggressive papillary thyroid cancer and with respect to the parent anticancer drug Doxorubicin.

[14] = tested on: Human primary anaplastic thyroid cancer (ATC) cells; assay: Vitality/proliferation of primary anaplastic thyroid cancer cells; type: cell-based; conditions: 100 nM, 250 nM, 500 nM; 3, 5 and 7 days
Protocol: Human primary anaplastic thyroid cancer (ATC) cells were treated with chimera 9 (100 nM, 250 nM, and 500 nM), or Doxorubicin (100 nM, 250 nM, and 500 nM), or with vehicle, for 3, 5, and 7 days.

[15] = tested on: triple negative breast cancer (TNBC) MDA 231 cells
Protocol: Five-week-old athymic Nude-Foxn 1nu male mice (ENVIGO Labs, Nes Ziona, Israel) were subcutaneously inoculated on the dorsal left side with […] (1×10^6 cell) into nu/nu mice, 0.2 mL per mouse) and tumors allowed to establish over time. When tumor volume reached 100 mm^3, Doxorubicin (Dox) and Doxorubizen (Chimera 9) were administered intraperitoneally (ip). Animals were removed from an experiment if either of the following conditions were fulfilled: reduction of 20% or more body weight; tumor volume>0.55 cm^3. The tumor dimensions were measured using a Vernier caliper and the volume was calculated according to the equation: Volume (mm^3) ¼ length×width×width×½ three times per week. The in vivo experiments were approved by the Animal Ethics Committee (Authorization number IL-179-06-19).
Chimera 9 was also evaluated for its effect on breast cancer model. For this evaluation, […] nude female (6-8 weeks) mice (groups 1, 2, two mice per group, groups 3, 4, 5 three mice per group) were inoculated with triple negative breast cancer (TNBC) MDA 231 cells. Group 1 was used as the control for tumor growth. After 10 days, mice were […] (ip) administered with Doxorubicin (groups 2 and 4) and Chimera 9 (Doxorubizen) (groups 3 and 5) in the following regime: ip administration of 2.5 mg/kg Doxorubicin once per week (group 2) and three sequential days per week (group 4); ip administration of 3.5 mg/kg chimera 9 once per week (group 3) and three sequential days per week (group 5). Overall experiment carried out for 5 weeks and 4 days, when the tumor volumes for all the groups were monitored. Tumors were then resected and measured.

Compound: COC(=O)N(C)/N=N/c1ccc(COC(=O)Nc2cc3c4c(cccc4c2)C(=O)N(CCN(C)C)C3=O)cc1 [Amonafidazene]
- biological parameters in vitro and in vivo compared with parent Amonafide [1]: superior in all biological parameters

Compound: CCc1c2c(nc3ccc(OCc4ccc(/N=N\N(C)C(=O)OC)cc4)cc13)-c1cc3c(c(=O)n1C2)COC(=O)[C@]3(O)CC [Chimera 1, (S,Z)-methyl3-(4-(((4,11-diethyl-4-hydroxy-3,14-dioxo-3,4,12,14-tetrahydro-1H pyrano [3′,4′:6,7]indolizino[1,2-b]quinolin-9-yl)oxy)methyl)phenyl)-1-methyltriaz-2-ene-1-carboxylate]
- effect on proliferation rate across the examined cell-lines [2]: inhibited the proliferation rate in all the examined cell-lines
- cytotoxic effect compared to the parental non-conjugated drug [2]: less than superior cytotoxic effect

Compound: CCc1c2c(nc3ccc(OCc4ccc(N=NN(C)C(=O)OC)cc4)cc13)-c1cc3c(c(=O)n1C2)COC(=O)C3(O)CC (centres unmarked) [Chimera 1]
- IC50 [3]: 1.2 µM
- IC50 [4]: 12.3 µM
- IC50 [5]: 0.63 µM
- IC50 [6]: 1.04 µM
- IC50 [7]: 0.55 µM
- IC50 [8]: 1.99 µM
- IC50 [9]: 3.02 µM
- IC50 [10]: 0.36 µM
- IC50 [11]: 8.42 µM
- IC50 [12]: 0.59 µM

Compound: COC(=O)N(C)/N=N/c1ccc(CNc2cccc3c2CN(C2CCC(=O)NC2=O)C3=O)cc1 (centres unmarked) [Chimera 2, (E)-methyl 3-(4-(((2-(2,6-dioxopiperidin-3-yl)-1-oxoisoindolin-4-yl)amino)methyl)phenyl)-1-methyltriaz-2-ene-1-carboxylate]
- effect on proliferation rate across the examined cell-lines [2]: decreased the proliferation rate in at least 3 cell-lines

Compound: COC(=O)N(C)/N=N/c1ccc(CNc2cccc3c2CN(C2CCC(=O)NC2=O)C3=O)cc1 (centres unmarked) [Chimera 2]
- IC50 [3]: 24 µM
- IC50 [4]: 17.1 µM
- IC50 [5]: 5.7 µM
- IC50 [6]: 46 µM
- IC50 [7]: 1.17 µM
- IC50 [8]: > 50 µM
- IC50 [9]: 47.5 µM
- IC50 [10]: 22.8 µM
- IC50 [11]: > 50 µM
- IC50 [12]: 14.2 µM

Compound: COC(=O)N(C)/N=N/c1ccc(COc2c(OC)cc([C@@H]3c4cc5c(cc4[C@@H](OC4O[C@@H]6CO[C@@H](C)O[C@H]6[C@H](O)[C@H]4O)[C@H]4COC(=O)[C@H]34)OCO5)cc2OC)cc1 (some centres unmarked) [Chimera 3]
- IC50 [3]: > 50 µM
- IC50 [4]: 10.2 µM
- IC50 [5]: 30.3 µM
- IC50 [6]: > 50 µM
- IC50 [7]: 43.1 µM
- cytotoxic effect compared to the parental non-conjugated drug [2]: did not show prevalence over Etoposide
- IC50 [8]: > 50 µM
- IC50 [9]: 34.8 µM
- IC50 [10]: 28.6 µM
- IC50 [11]: 42.1 µM
- IC50 [12]: 23.7 µM

Compound: COC(=O)N(C)/N=N/c1ccc(COc2cc(/C=C\c3cc(OC)c(OC)c(OC)c3)ccc2OC)cc1 [Chimera 4, (E)-methyl3-(4-((2-methoxy-5-((Z)-3,4,5-trimethoxystyryl)phenoxy)methyl)phenyl)-1-methyltriaz-2-ene-1-carboxylate]
- effect on proliferation rate across the examined cell-lines [2]: decreased the proliferation rate in at least 3 cell-lines
- cytotoxic effect compared to the parental non-conjugated drug [2]: less than superior cytotoxic effect

Compound: COC(=O)N(C)/N=N/c1ccc(COc2cc(/C=C\c3cc(OC)c(OC)c(OC)c3)ccc2OC)cc1 [Chimera 4]
- IC50 [3]: 21.6 µM
- IC50 [4]: > 50 µM
- IC50 [5]: 0.69 µM
- IC50 [6]: 4.72 µM
- IC50 [7]: 1.63 µM
- IC50 [8]: 27.6 µM
- IC50 [9]: 39.8 µM
- IC50 [10]: 13.8 µM
- IC50 [11]: 41.5 µM
- IC50 [12]: 0.13 µM

Compound: COC(=O)N(C)/N=N/c1ccc(Cn2cc(F)c(=O)[nH]c2=O)cc1 [Chimera 5, (E)-methyl3-(4-((5-fluoro-2,4-dioxo-3,4-dihydropyrimidin-1(2H)-yl)methyl)phenyl)-1-methyltriaz-2-ene-1-carboxylate]
- effect on proliferation rate across the examined cell-lines [2]: decreased the proliferation rate in at least 3 cell-lines

Compound: COC(=O)N(C)/N=N/c1ccc(Cn2cc(F)c(=O)[nH]c2=O)cc1 [Chimera 5]
- IC50 [3]: 32.4 µM
- IC50 [4]: 22.7 µM
- IC50 [5]: 29.7 µM
- IC50 [6]: 27.7 µM
- IC50 [7]: 2.72 µM
- IC50 [8]: 30.9 µM
- IC50 [9]: 44.6 µM
- IC50 [10]: > 50 µM
- IC50 [11]: > 50 µM
- IC50 [12]: 0.13 µM

Compound: COC(=O)N(C)/N=N/c1ccc(CSc2ncnc3nc[nH]c23)cc1 [Chimera 6, (E)-methyl 3-(4-(((7H-purin-6-yl)thio)methyl)phenyl)-1-methyltriaz-2-ene-1-carboxylate]
- effect on proliferation rate across the examined cell-lines [2]: decreased the proliferation rate in at least 3 cell-lines

Compound: COC(=O)N(C)/N=N/c1ccc(CSc2ncnc3nc[nH]c23)cc1 [Chimera 6]
- IC50 [3]: 16.6 µM
- IC50 [4]: 8.76 µM
- IC50 [5]: 6.88 µM
- IC50 [6]: 39.2 µM
- IC50 [7]: 13.5 µM
- IC50 [8]: > 50 µM
- IC50 [9]: 31 µM
- IC50 [10]: 39.5 µM
- IC50 [11]: > 50 µM
- IC50 [12]: 20.5 µM

Compound: COC(=O)N(C)/N=N/c1ccc(CNc2nc3ccc(OC(F)(F)F)cc3s2)cc1 [Chimera 7, (E)-methyl1-methyl-3-(4-(((6-(trifluoromethoxy)benzo [d]thiazol2yl)amino)methyl)phenyl) triaz-2-ene-1-carboxylate]
- effect on proliferation rate across the examined cell-lines [2]: decreased the proliferation rate in at least 3 cell-lines
- cytotoxic effect compared to the parental non-conjugated drug [2]: reduced proliferation rate of numerous cell-lines

Compound: COC(=O)N(C)/N=N/c1ccc(CNc2nc3ccc(OC(F)(F)F)cc3s2)cc1 [Chimera 7]
- IC50 [3]: 5.25 µM
- IC50 [4]: 14.2 µM
- IC50 [5]: 7.8 µM
- IC50 [6]: 23 µM
- IC50 [7]: 2.37 µM
- IC50 [8]: 2.37 µM
- IC50 [9]: 1.81 µM
- IC50 [10]: > 50 µM
- IC50 [11]: 43 µM
- IC50 [12]: 18 µM

Compound: COC(=O)N(C)/N=N/c1ccc(CNc2cc3c4c(cccc4c2)C(=O)N(CCN(C)C)C3=O)cc1 [Chimera 8]
- IC50 [3]: 36 µM
- IC50 [4]: 12.7 µM
- IC50 [5]: 13.3 µM
- IC50 [6]: 19.1 µM
- IC50 [7]: 1.97 µM
- IC50 [8]: 20.9 µM
- IC50 [9]: 10.3 µM
- IC50 [10]: 7.12 µM
- IC50 [11]: > 50 µM
- IC50 [12]: > 50 µM

Compound: COc1cccc2c1C(=O)c1c(O)c3c(c(O)c1C2=O)C[C@@](O)(C(=O)CO)C[C@@H]3O[C@H]1C[C@H](N)[C@H](O)[C@H](C)O1 [Doxorubicin, reference compound]
- proliferation of thyroid cancer cells [13]: no effect on cell proliferation
- vitality/proliferation of primary human ATC cells [14]: reduced the vitality/proliferation of primary human ATC cells significantly
- day of sacrifice due to large tumor volumes and severe animal conditions ([15]; Group 2: ip 2.5 mg/kg once per week): 12 days
- day of death due to over toxication ([15]; Group 4: ip 2.5 mg/kg, three sequential days per week): 20 days
